Test results taken from ChEMBL document CHEMBL1649565, “Besifloxacin, a novel fluoroquinolone, has broad-spectrum in vitro activity against aerobic and anaerobic bacteria” (Antimicrob Agents Chemother, 2009).
Values after ≈ are worked out from the molar mass of the structure shown. Active and inactive are the calls of the source. The calls are words filed in the database; no cut-off is given here.

Columns and labels:
Staphylococcus warneri [1] = experiment: Antibacterial activity against Staphylococcus warneri assessed as percent susceptible isolates by CLSI M100-S18 method; format: functional
[2] = tested on: Staphylococcus saprophyticus; experiment: Antibacterial activity against Staphylococcus saprophyticus by CLSI M100-S18 method; format: functional
Staphylococcus aureus [3] = experiment: Antibacterial activity against non-ciprofloxacin-susceptible and methicillin-susceptible Staphylococcus aureus by CLSI M100-S18 method; format: functional
Moraxella catarrhalis = experiment: Antibacterial activity against Moraxella catarrhalis by CLSI M7-A7 method; format: functional
Staphylococcus aureus [4] = experiment: Antibacterial activity against ciprofloxacin-susceptible and methicillin-resistant Staphylococcus aureus by CLSI M100-S18 method; format: functional
[5] = tested on: Staphylococcus saprophyticus; experiment: Antibacterial activity against Staphylococcus saprophyticus assessed as percent susceptible isolates by CLSI M100-S18 method; format: functional
[6] = tested on: Staphylococcus epidermidis
[7] = tested on: Staphylococcus lugdunensis; experiment: Antibacterial activity against Staphylococcus lugdunensis assessed as percent susceptible isolates by CLSI M100-S18 method; format: functional
[8] = tested on: Staphylococcus epidermidis; experiment: Antibacterial activity against non-ciprofloxacin-susceptible and methicillin-susceptible Staphylococcus epidermidis assessed as percent susceptible isolates by CLSI M100-S18 method; format: functional
[9] = tested on: Staphylococcus haemolyticus; experiment: Antibacterial activity against Staphylococcus haemolyticus assessed as percent susceptible isolates by CLSI M100-S18 method; format: functional
Staphylococcus aureus [10] = experiment: Antibacterial activity against non-ciprofloxacin-susceptible and methicillin-susceptible Staphylococcus aureus assessed as percent susceptible isolates by CLSI M100-S18 method; format: functional
[11] = tested on: Staphylococcus epidermidis; remark: listed apart in the source
[12] = tested on: Staphylococcus epidermidis; experiment: Antibacterial activity against ciprofloxacin-susceptible and methicillin-resistant Staphylococcus epidermidis by CLSI M100-S18 method; format: functional
[13] = tested on: Staphylococcus haemolyticus; experiment: Antibacterial activity against Staphylococcus haemolyticus by CLSI M100-S18 method; format: functional
Staphylococcus aureus [14] = experiment: Antibacterial activity against ciprofloxacin-susceptible and methicillin-resistant Staphylococcus aureus assessed as percent susceptible isolates by CLSI M100-S18 method; format: functional
Staphylococcus hominis [15] = experiment: Antibacterial activity against Staphylococcus hominis assessed as percent susceptible isolates by CLSI M100-S18 method; format: functional
Staphylococcus hominis [16] = experiment: Antibacterial activity against Staphylococcus hominis by CLSI M100-S18 method; format: functional
[17] = tested on: Staphylococcus epidermidis; experiment: Antibacterial activity against ciprofloxacin-susceptible and methicillin-resistant Staphylococcus epidermidis assessed as percent susceptible isolates by CLSI M100-S18 method; format: functional
[18] = tested on: Staphylococcus epidermidis; experiment: Antibacterial activity against non-ciprofloxacin-susceptible and methicillin-susceptible Staphylococcus epidermidis by CLSI M100-S18 method; format: functional
Staphylococcus warneri [19] = experiment: Antibacterial activity against Staphylococcus warneri by CLSI M100-S18 method; format: functional
[20] = tested on: Staphylococcus lugdunensis; experiment: Antibacterial activity against Staphylococcus lugdunensis by CLSI M100-S18 method; format: functional
Fusobacterium sp. [21] = experiment: Antibacterial activity against Fusobacterium sp. by CLSI M11-A7 method; format: functional
Bacteroides fragilis [22] = experiment: Antibacterial activity against Bacteroides fragilis assessed as percent susceptible isolates by CLSI M11-A7 method; format: functional
Cutibacterium acnes [23] = experiment: Antibacterial activity against Propionibacterium acnes assessed as percent susceptible isolates by CLSI M11-A7 method; format: functional
Bacteroides fragilis [24] = experiment: Antibacterial activity against Bacteroides fragilis by CLSI M11-A7 method; format: functional
Fusobacterium sp. [25] = experiment: Antibacterial activity against Fusobacterium sp. assessed as percent susceptible isolates by CLSI M11-A7 method; format: functional
Clostridium perfringens = experiment: Antibacterial activity against Clostridium perfringens by CLSI M11-A7 method; format: functional
Cutibacterium acnes [26] = experiment: Antibacterial activity against Propionibacterium acnes by CLSI M11-A7 method; format: functional
Prevotella sp. [27] = experiment: Antibacterial activity against Prevotella sp. by CLSI M11-A7 method; format: functional
Peptostreptococcus sp. [28] = experiment: Antibacterial activity against Peptostreptococcus sp. assessed as percent susceptible isolates by CLSI M11-A7 method; format: functional
Prevotella sp. [29] = experiment: Antibacterial activity against Prevotella sp. assessed as percent susceptible isolates by CLSI M11-A7 method; format: functional
Peptostreptococcus sp. [30] = experiment: Antibacterial activity against Peptostreptococcus sp. by CLSI M11-A7 method; format: functional

Cc1onc(-c2ccccc2)c1C(=O)N[C@@H]1C(=O)N2[C@@H]1SC(C)(C)[C@@H]2C(=O)O [OXACILLIN] showed an Activity (Staphylococcus warneri [1]) of 46%, an MIC50 [2] of 0.5 µg/mL (≈ 1.25 µM) and an MIC90 [2] of 1 µg/mL (≈ 2.49 µM). For the same compound, the MIC50 (Staphylococcus aureus [3]) was > 8 µg/mL, the MIC90 (Staphylococcus aureus [3]) was > 8 µg/mL and the MIC50 (Moraxella catarrhalis) was 4 µg/mL (≈ 9.96 µM). For the same compound, the MIC90 (Moraxella catarrhalis) was 8 µg/mL (≈ 19.9 µM), the MIC50 (Staphylococcus aureus [4]) was 0.25 µg/mL (≈ 0.623 µM) and the MIC90 (Staphylococcus aureus [4]) was > 8 µg/mL. For the same compound, the Activity [5] was 9.9%, the MIC90 [6] was “inactive” and the Activity [7] was 60%. The Activity [8] was 16.7%, the Activity [9] was 31.7% and the Activity (Staphylococcus aureus [10]) was 36.4%. The MIC90 [11] was “inactive”, the MIC50 [12] was 0.12 µg/mL (≈ 0.299 µM) and the MIC50 [13] was > 8 µg/mL. The MIC90 [13] was > 8 µg/mL, the Activity (Staphylococcus aureus [14]) was 78.9% and the Activity (Staphylococcus hominis [15]) was 16%. The MIC50 (Staphylococcus hominis [16]) was > 8 µg/mL, the MIC90 (Staphylococcus hominis [16]) was > 8 µg/mL and the Activity [17] was 55.6%. The MIC50 [18] was 1 µg/mL (≈ 2.49 µM), the MIC50 (Staphylococcus warneri [19]) was 0.5 µg/mL (≈ 1.25 µM) and the MIC90 (Staphylococcus warneri [19]) was > 8 µg/mL. For the same compound, the MIC50 [20] was 0.5 µg/mL (≈ 1.25 µM) and the MIC90 [20] was > 8 µg/mL.
Compound CCC[C@@H]1C[C@@H](C(=O)N[C@@H]([C@H]2O[C@H](SC)[C@H](O)[C@@H](O)[C@H]2O)[C@H](C)Cl)N(C)C1 [CLINDAMYCIN] has an MIC (Fusobacterium sp. [21]) of 0.06 µg/mL (≈ 0.141 µM), an MIC50 (Fusobacterium sp. [21]) of 0.06 µg/mL (≈ 0.141 µM) and an MIC90 (Fusobacterium sp. [21]) of 2 µg/mL (≈ 4.71 µM). The Activity (Bacteroides fragilis [22]) was 65%, the Activity (Cutibacterium acnes [23]) was 100% and the MIC50 (Bacteroides fragilis [24]) was 2 µg/mL (≈ 4.71 µM). The MIC90 (Bacteroides fragilis [24]) was > 8 µg/mL, the Activity (Fusobacterium sp. [25]) was 95.2% and the MIC50 (Clostridium perfringens) was 2 µg/mL (≈ 4.71 µM). It also gave an MIC90 (Clostridium perfringens) of 4 µg/mL (≈ 9.41 µM), an MIC50 (Cutibacterium acnes [26]) of 0.06 µg/mL (≈ 0.141 µM) and an MIC90 (Cutibacterium acnes [26]) of 0.12 µg/mL (≈ 0.282 µM). For the same compound, the MIC (Prevotella sp. [27]) was ≤ 0.03 µg/mL, the MIC50 (Prevotella sp. [27]) was ≤ 0.03 µg/mL and the MIC90 (Prevotella sp. [27]) was > 8 µg/mL. It also gave an Activity (Peptostreptococcus sp. [28]) of 88.5%, an Activity (Prevotella sp. [29]) of 85% and an MIC50 (Peptostreptococcus sp. [30]) of 0.25 µg/mL (≈ 0.588 µM). The MIC90 (Peptostreptococcus sp. [30]) was > 8 µg/mL.
